Measurements from patent publication US20160257697A1, “THIOPHENE-SUBSTITUTED TETRACYCLIC COMPOUNDS AND METHODS OFUSE THEREOF FOR THE TREATMENT OF VIRAL DISEASES” (priority 2013, published 2016).
Where two headings read alike, the source gives them in different places.

Legend:
Test in all cases: microbe, parasite or virus in culture
Assay type in all cases: cell-based, Hepatitis C virus (HCV)
Conditions in all cases: Replicon Assay A
[1] = test system: HCV replicon 1A
In short: (§1)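 Replicon cells were seeded at 2000 cells/well with test compound in 0.5% DMSO and 5% FBS, then harvested on day 3. Replicon RNA was measured by multiplex TaqMan real-time RT-PCR, using cyclophilin RNA as the endogenous control and quantified against standard curves of HCV replicon total RNA.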

[2] = test system: HCV replicon 1AY93H
In short: as §1

[3] = test system: HCV replicon 2B
In short: as §1

[4] = Hepatitis C virus, read-out: 1A Y93H IC50 (nM), replicon 1AY93H
[5] = Hepatitis C virus, read-out: 2B IC50 (nM), replicon 2B
[6] = read-out: 1A Y93H IC50, HCV replicon 1A Y93H
[7] = read-out: 2B IC50, HCV replicon 2B
[8] = read-out: 1A Y93H IC50, replicon 1AY93H

In the case of COC(=O)N[C@H](C(=O)N1CCC[C@H]1c1ncc(-c2cc(F)c3c(c2)OC(c2cc4c(s2)C(C)(C)CC4)n2c-3cc3cc(-c4cnc([C@@H]5CCCN5C(=O)[C@@H](NC(=O)OC)C(C)C)[nH]4)ccc32)[nH]1)C(C)C (single isomer, unassigned) [Compound 392], the IC50 ([1]; replicon 1A) is reported as 3.8 pM, the IC50 [2, 4] is reported as 0.0514 nM and the IC50 [3, 5] is reported as 0.373 nM.
In the case of COC(=O)N[C@H](C(=O)N1CCC[C@H]1c1nc(-c2cc(F)c3c(c2)OC(c2ccc(C4CC4)s2)n2c-3cc3cc(-c4c[nH]c([C@@H]5C[C@H]6C[C@H]6N5C(=O)[C@@H](NC(=O)OC)C(C)C)n4)ccc32)c[nH]1)C(C)C (single isomer, unassigned) [Compound 719], the IC50 ([1]; HCV replicon 1A) is reported as 10 pM, the IC50 [2, 6] is reported as 0.032 nM and the IC50 [3, 7] is reported as 0.036 nM.
Work on COC(=O)N[C@H](C(=O)N1C2CC2C[C@H]1c1ncc(-c2cc(F)c3c(c2)OC(c2ccc(C4CC4)s2)n2c-3cc3cc(-c4cnc([C@@H]5CCCN5C(=O)[C@@H](NC(=O)OC)C5C[C@@H](C)O[C@@H](C)C5)[nH]4)ccc32)[nH]1)C(C)C (single isomer, unassigned) [Compound 555] yielded an IC50 ([1]; HCV replicon 1A) of 2.39 pM, an IC50 [2, 6] of 0.105 nM and an IC50 [3, 7] of 0.197 nM.
COC(=O)N[C@H](C(=O)N1C[C@H](F)C[C@H]1c1ncc(-c2ccc3c(c2)OC(c2ccc(C)s2)n2c-3cc3cc(-c4cnc([C@@H]5C[C@H]6C[C@H]6N5C(=O)[C@@H](NC(=O)OC)C(C)C)[nH]4)ccc32)[nH]1)C(C)C (single isomer, unassigned) [Compound 708] showed an IC50 ([1]; HCV replicon 1A) of 18 pM, an IC50 [2, 6] of 0.042 nM and an IC50 [3, 7] of 3.05 nM.
Molecule COC(=O)N[C@H](C(=O)N1CCC[C@H]1c1nc(-c2ccc3c(c2)OC(c2ccc(C)s2)n2c-3cc3cc(-c4c[nH]c([C@@H]5NCCN5C(=O)[C@@H](NC(=O)OC)C(C)C)n4)ccc32)c[nH]1)C(C)C (single isomer, unassigned) [Compound 701] has an IC50 ([1]; HCV replicon 1A) of 3 pM, an IC50 [2, 6] of 0.085 nM and an IC50 [3, 7] of 0.15 nM.
In the case of COC(=O)N[C@H](C(=O)N1CCC[C@H]1c1ncc(-c2cc(F)c3c(c2)OC(c2ccc(C4CCCCC4)s2)n2c-3cc3cc(-c4cnc([C@@H]5CCCN5C(=O)[C@@H](NC(=O)OC)C(C)C)[nH]4)ccc32)[nH]1)C(C)C (single isomer, unassigned) [Compound 530], the IC50 ([1]; HCV replicon 1A) is reported as 13.1 pM, the IC50 ([2]; Hepatitis C virus, read-out: 1A Y93H IC50, HCV replicon 1A Y93H) is reported as 0.0499 nM and the IC50 [3, 7] is reported as 0.488 nM.
With COC(=O)N[C@H](C(=O)N1CCC[C@H]1c1ncc(-c2cc(C)c3c(c2)OC(c2cc4c(s2)CCC4)n2c-3cc3cc(-c4cnc([C@@H]5CCCN5C(=O)[C@@H](NC(=O)OC)C5C[C@@H](C)O[C@@H](C)C5)[nH]4)ccc32)[nH]1)C(C)C (single isomer, unassigned) [Compound 550] the IC50 ([1]; HCV replicon 1A) was 30 pM, the IC50 [2, 6] was 0.154 nM and the IC50 [3, 7] was 0.0435 nM.
CCc1ccc(C2Oc3cc(-c4cnc([C@@H]5CCCN5C(=O)C(NC(=O)OC)C5CCOC(C)(C)C5)[nH]4)cc(F)c3-c3cc4cc(-c5cnc([C@@H]6CCCN6C(=O)C(NC(=O)OC)C6CCOC(C)(C)C6)[nH]5)ccc4n32)s1 (single isomer, unassigned) [Compound 297] was tested, and the IC50 ([1]; replicon 1A) was 88.9 pM, the IC50 [2, 8] was 8.37 nM and the IC50 ([3]; read-out: 2B IC50, replicon 2B) was 6.68 nM.
COC(=O)N[C@H](C(=O)N1CCC[C@H]1c1ncc(-c2cc(F)c3c(c2)OC(c2ccc(C4CC4)s2)n2c-3c(F)c3cc(-c4cnc([C@@H]5CCCN5C(=O)[C@@H](NC(=O)OC)C(C)C)[nH]4)ccc32)[nH]1)C(C)C (single isomer, unassigned) [Compound 73] was tested, and the IC50 ([1]; Hepatitis C virus, replicon 1A) was 1.6 pM, the IC50 [2, 4] was 2.26 nM and the IC50 [3, 5] was 5.14 nM.
In the case of COC(=O)N[C@H](C(=O)N1CCC[C@H]1c1ncc(-c2cc(F)c3c(c2)OC(c2ccc(C#CC4CC4)s2)n2c-3cc3cc(-c4cnc([C@@H]5CCCN5C(=O)[C@@H](NC(=O)OC)C(C)C)[nH]4)ccc32)[nH]1)C(C)C (single isomer, unassigned) [Compound 85], the IC50 ([1]; Hepatitis C virus, replicon 1A) is reported as 1.1 pM, the IC50 [2, 8] is reported as 0.41 nM and the IC50 ([3]; read-out: 2B IC50, replicon 2B) is reported as 1 nM.
For COC(=O)NC(C(=O)N1CCC[C@H]1c1ncc(-c2ccc3c(c2)cc2n3C(c3ccc(C4CC4)s3)Oc3cc(-c4cnc([C@@H]5CCCN5C(=O)[C@@H](NC(=O)OC)C(C)C)[nH]4)cc(F)c3-2)[nH]1)C1CCOC(C)(C)C1 (single isomer, unassigned) [Compound 222], the IC50 ([1]; replicon 1A) was 2 pM, the IC50 [2, 8] was 0.24 nM and the IC50 ([3]; read-out: 2B IC50, replicon 2B) was 0.17 nM.
Work on COC(=O)N[C@H](C(=O)N1CCC[C@H]1c1ncc(-c2cc(F)c3c(c2)OC(c2ccc(C4CC4)s2)n2c-3cc3cc(-c4cnc([C@@H]5C[C@@H](F)CN5C(=O)[C@@H](c5ccccc5)N5CCC5)[nH]4)ccc32)[nH]1)C(C)C (mixture of isomers) [Compound 109] yielded an IC50 ([1]; Hepatitis C virus, replicon 1A) of 5.8 pM, an IC50 [2, 4] of 4.5 nM and an IC50 [3, 5] of 24.4 nM.
